According to ChEMBL document CHEMBL2021911 (Bioorg Med Chem Lett, 2012):
The source made the active and inactive calls. No cut-off for these calls is given here.

Columns and labels:
[1] = target: T1, Muscarinic acetylcholine receptor M1 (Homo sapiens, UniProt P11229); assay: Agonist activity at human muscarinic M1 receptor by calcium mobilization assay; assay type: functional
T1 sequence (P11229 whole entry): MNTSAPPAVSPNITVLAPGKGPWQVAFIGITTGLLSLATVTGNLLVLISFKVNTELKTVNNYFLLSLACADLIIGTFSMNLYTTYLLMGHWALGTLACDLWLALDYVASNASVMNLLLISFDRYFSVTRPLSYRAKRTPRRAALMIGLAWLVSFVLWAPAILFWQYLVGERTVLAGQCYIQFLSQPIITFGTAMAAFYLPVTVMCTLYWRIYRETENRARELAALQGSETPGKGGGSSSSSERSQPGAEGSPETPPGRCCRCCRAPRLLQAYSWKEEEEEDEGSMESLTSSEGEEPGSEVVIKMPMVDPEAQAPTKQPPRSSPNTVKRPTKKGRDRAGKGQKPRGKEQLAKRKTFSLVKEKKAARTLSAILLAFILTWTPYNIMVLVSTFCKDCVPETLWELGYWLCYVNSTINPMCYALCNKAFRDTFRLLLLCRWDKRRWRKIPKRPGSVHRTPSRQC

[2] = target: T2, Muscarinic acetylcholine receptor M1 (Homo sapiens) (UniProt P11229); assay: Agonist activity at human muscarinic M1 receptor at 30 uM by calcium mobilization assay relative to acetylcholine; assay type: functional
T2 sequence (whole entry): T1 sequence (P11229 whole entry)

[3] = target: T3, Muscarinic acetylcholine receptor M3 (Homo sapiens, UniProt P20309); assay: Agonist activity at human muscarinic M3 receptor by calcium mobilization assay; assay type: functional
Target sequence in this assay (P20309 whole entry): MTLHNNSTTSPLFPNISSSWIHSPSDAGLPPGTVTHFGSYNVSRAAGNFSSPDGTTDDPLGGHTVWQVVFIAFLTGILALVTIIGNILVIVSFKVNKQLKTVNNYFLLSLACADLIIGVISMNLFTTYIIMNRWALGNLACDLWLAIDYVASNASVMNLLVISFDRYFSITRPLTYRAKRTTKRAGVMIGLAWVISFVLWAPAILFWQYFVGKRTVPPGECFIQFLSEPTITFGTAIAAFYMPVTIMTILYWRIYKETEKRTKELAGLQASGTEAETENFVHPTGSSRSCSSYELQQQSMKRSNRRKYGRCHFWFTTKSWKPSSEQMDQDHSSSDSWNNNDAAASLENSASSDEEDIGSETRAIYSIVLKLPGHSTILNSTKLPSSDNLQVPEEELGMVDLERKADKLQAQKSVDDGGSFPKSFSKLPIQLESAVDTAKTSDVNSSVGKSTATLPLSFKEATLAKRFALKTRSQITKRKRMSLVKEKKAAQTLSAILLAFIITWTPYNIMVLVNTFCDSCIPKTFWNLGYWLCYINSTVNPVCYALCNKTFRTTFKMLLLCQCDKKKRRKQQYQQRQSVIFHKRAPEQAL

[4] = target: T4, Muscarinic acetylcholine receptor M2 (Homo sapiens, UniProt P08172); assay: Antagonist activity at human muscarinic M2 receptor by calcium mobilization assay; assay type: functional
T4 sequence (P08172 whole entry): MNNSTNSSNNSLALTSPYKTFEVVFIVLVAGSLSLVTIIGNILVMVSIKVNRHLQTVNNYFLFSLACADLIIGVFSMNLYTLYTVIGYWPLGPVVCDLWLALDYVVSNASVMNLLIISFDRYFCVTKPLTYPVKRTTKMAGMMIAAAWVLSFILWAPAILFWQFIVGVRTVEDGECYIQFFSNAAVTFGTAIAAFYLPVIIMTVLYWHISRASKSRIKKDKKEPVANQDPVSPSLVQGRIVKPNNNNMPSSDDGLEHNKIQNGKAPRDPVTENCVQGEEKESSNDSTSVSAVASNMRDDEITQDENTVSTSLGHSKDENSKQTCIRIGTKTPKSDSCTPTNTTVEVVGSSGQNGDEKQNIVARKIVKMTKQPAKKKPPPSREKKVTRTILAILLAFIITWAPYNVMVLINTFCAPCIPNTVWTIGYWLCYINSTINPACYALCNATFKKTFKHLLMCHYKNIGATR

[5] = target: T5, Muscarinic acetylcholine receptor M2 (Homo sapiens) (UniProt P08172); assay: Antagonist activity at human muscarinic M2 receptor assessed as remaining activity measured as percentage of maximum response generated from 80% of saturating dose of ACh at 30 uM by calcium mobilization assay; assay type: functional
T5 sequence (whole entry): T4 sequence (P08172 whole entry)

[6] = target: T3, Muscarinic acetylcholine receptor M3; assay: Agonist activity at human muscarinic M3 receptor at 30 uM by calcium mobilization assay relative to acetylcholine; assay type: functional
Target sequence in this assay (P20309 whole entry, looked up): as the sequence (P20309 whole entry) above

[7] = target: T6, Muscarinic acetylcholine receptor M4 (Homo sapiens, UniProt P08173); assay: Antagonist activity at human muscarinic M4 receptor by calcium mobilization assay; assay type: functional
T6 sequence (P08173 whole entry): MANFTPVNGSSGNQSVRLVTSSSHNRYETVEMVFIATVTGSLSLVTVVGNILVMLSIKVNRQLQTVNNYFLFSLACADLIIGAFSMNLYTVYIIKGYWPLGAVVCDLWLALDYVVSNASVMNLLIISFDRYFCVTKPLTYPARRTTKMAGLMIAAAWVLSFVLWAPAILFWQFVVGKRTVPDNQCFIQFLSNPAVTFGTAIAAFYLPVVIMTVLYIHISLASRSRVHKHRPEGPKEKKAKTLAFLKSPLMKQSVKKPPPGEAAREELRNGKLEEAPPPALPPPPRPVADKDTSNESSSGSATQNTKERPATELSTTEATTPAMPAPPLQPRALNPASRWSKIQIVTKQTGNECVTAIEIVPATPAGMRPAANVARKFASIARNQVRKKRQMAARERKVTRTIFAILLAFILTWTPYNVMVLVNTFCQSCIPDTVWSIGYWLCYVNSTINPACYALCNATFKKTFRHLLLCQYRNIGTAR

[8] = target: T7, Muscarinic acetylcholine receptor M4 (Homo sapiens) (UniProt P08173); assay: Antagonist activity at human muscarinic M4 receptor assessed as remaining activity measured as percentage of maximum response generated from 80% of saturating dose of ACh at 30 uM by calcium mobilization assay; assay type: functional
T7 sequence (whole entry): T6 sequence (P08173 whole entry)

[9] = target: T8, Muscarinic acetylcholine receptor M5 (Homo sapiens, UniProt P08912); assay: Agonist activity at human muscarinic M5 receptor by calcium mobilization assay; assay type: functional; conditions: read-out: EC50
T8 sequence (P08912 whole entry): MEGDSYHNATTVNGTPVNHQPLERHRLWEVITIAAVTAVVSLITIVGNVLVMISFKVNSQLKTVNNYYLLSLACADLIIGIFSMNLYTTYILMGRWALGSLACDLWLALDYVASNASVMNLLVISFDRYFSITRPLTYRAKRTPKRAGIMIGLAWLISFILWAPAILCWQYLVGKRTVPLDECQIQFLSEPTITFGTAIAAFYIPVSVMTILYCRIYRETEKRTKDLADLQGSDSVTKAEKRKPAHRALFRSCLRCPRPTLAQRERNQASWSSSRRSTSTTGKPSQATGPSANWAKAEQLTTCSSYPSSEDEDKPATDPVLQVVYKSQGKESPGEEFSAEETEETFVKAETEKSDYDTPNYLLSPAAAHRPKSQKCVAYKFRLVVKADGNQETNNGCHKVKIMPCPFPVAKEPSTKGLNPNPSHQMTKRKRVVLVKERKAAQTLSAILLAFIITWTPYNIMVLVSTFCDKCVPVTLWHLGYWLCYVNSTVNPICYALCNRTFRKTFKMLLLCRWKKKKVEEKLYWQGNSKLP

[10] = target: T9, Muscarinic acetylcholine receptor M5 (Homo sapiens) (UniProt P08912); assay: Agonist activity at human muscarinic M5 receptor at 30 uM by calcium mobilization assay relative to acetylcholine; assay type: functional
T9 sequence (whole entry): T8 sequence (P08912 whole entry)

[11] = target: T1, Muscarinic acetylcholine receptor M1; assay: Agonist activity at human muscarinic M1 receptor; assay type: functional; conditions: read-out: EC50
[12] = target: T2, Muscarinic acetylcholine receptor M1 (Homo sapiens); assay: Agonist activity at human muscarinic M1 receptor at 30 uM relative to acetylcholine; assay type: functional
[13] = target: T2, Muscarinic acetylcholine receptor M1 (Homo sapiens); assay: Agonist activity at human muscarinic M1 receptor expressed in TREx293 cells assessed as increase of soluble APPalpha release at 2 uM; assay type: functional, cell-based; conditions: HEK293
[14] = target: T4, Muscarinic acetylcholine receptor M2; assay: Agonist activity at human muscarinic M2 receptor by calcium mobilization assay; assay type: functional
[15] = target: T5, Muscarinic acetylcholine receptor M2 (Homo sapiens); assay: Agonist activity at human muscarinic M2 receptor at 30 uM by calcium mobilization assay relative to acetylcholine; assay type: functional
[16] = target: T6, Muscarinic acetylcholine receptor M4; assay: Agonist activity at human muscarinic M4 receptor by calcium mobilization assay; assay type: functional
[17] = target: T3, Muscarinic acetylcholine receptor M3; assay: Antagonist activity at human muscarinic M3 receptor by calcium mobilization assay
Target sequence in this assay (P20309 whole entry): as the sequence (P20309 whole entry) above

[18] = target: T3, Muscarinic acetylcholine receptor M3; assay: Antagonist activity at human muscarinic M3 receptor assessed as remaining activity measured as percentage of maximum response generated from 80% of saturating dose of ACh at 30 uM by calcium mobilization assay; assay type: functional
Target sequence in this assay (P20309 whole entry, looked up): as the sequence (P20309 whole entry) above

[19] = Clearance in rat at 1 mg/kg, iv and 10 mg/kg, po; assay type: ADME, organism-based; conditions: in vivo
[20] = Volume of distribution at steady state in rat at 1 mg/kg, iv and 10 mg/kg, po; assay type: ADME, organism-based; conditions: in vivo, read-out: Vdss
[21] = Half life in rat at 1 mg/kg, iv and 10 mg/kg, po; assay type: ADME, organism-based; conditions: in vivo
[22] = Oral bioavailability in rat at 10 mg/kg; assay type: ADME, organism-based; conditions: in vivo
[23] = AUC in rat at 1 mg/kg, iv; assay type: ADME, organism-based; design: dose 1 mg/kg, route intravenous; conditions: plasma
[24] = AUC in rat at 10 mg/kg, po; assay type: ADME, organism-based; design: dose 10 mg/kg, route oral; conditions: plasma
[25] = target: Muscarinic acetylcholine receptors; M1 & M2 (Homo sapiens) (UniProt P11229+P08172); assay: Selectivity ratio of EC50 for human muscarinic M2 receptor to EC50 for human muscarinic M1 receptor
[26] = target: T7, Muscarinic acetylcholine receptor M4 (Homo sapiens); assay: Agonist activity at human muscarinic M4 receptor at 30 uM by calcium mobilization assay relative to acetylcholine; assay type: functional

`CCCCC1CCN(CCCN2C(=O)COc3cc(F)ccc32)CC1` showed an EC50 [1] of 41 nM, an Activity [2] of 81% and an EC50 ([3]; read-out: EC50) of 5900 nM. For the same compound, the IC50 ([4]; read-out: IC50) was over 10000 nM, the Activity [5] was 30% and the Activity [6] was 19%. It also gave an IC50 ([7]; read-out: IC50) of over 10000 nM, an Activity [8] of 26% and an EC50 [9] of 1000 nM. It also gave an Activity [10] of 28%.
With `CCOC(=O)N1C2CCC1CC(N1CCC[C@@H](NC(=O)c3ccccc3)C1)C2` (mixture of isomers) the EC50 [11] was 840 nM, the Activity [12] was 75% and the Activity [13] was “Active”. The EC50 [1] was 350 nM, the Activity [2] was 65% and the EC50 ([14]; read-out: EC50) was over 10000 nM. The Activity [15] was 27%, the EC50 [3] was “Not Active” and the EC50 [16] was “Not Active”. For the same compound, the IC50 [7] was “Not Active”, the EC50 [9] was over 10000 nM and the Activity [10] was 21%.
For `CCOC(=O)N1C[C@H]2CC[C@@H](C1)[C@H]2NCCNC(=O)c1ccccc1`, the EC50 [11] was 92 nM, the Activity [12] was 53% and the Activity [13] was “Active”. The EC50 [1] was 18 nM, the Activity [2] was 46% and the EC50 [14] was “Not Active”. For the same compound, the IC50 [4] was “Not Active”, the IC50 [17] was over 10000 nM and the Activity [18] was 45%. It also gave an IC50 ([7]; read-out: IC50) of over 10000 nM, an Activity [8] of 48% and an EC50 [9] of 2800 nM. It also gave an Activity [10] of 31%.
In the case of `CCOC(=O)N1C2CCC1CC(N1CCC[C@@H](NC(=O)c3ccccc3C)C1)C2` (mixture of isomers), the EC50 [11] is reported as 59 nM, the Activity [12] is reported as 75% and the Activity [13] is reported as “Active”. It also gave a clearance [19] of 189 mL/min/kg, a Vd [20] of 11.8 L/kg and a half-life [21] of 46 min. The bioavailability [22] was 70%, the AUC [23] was 92.2 ng·h/mL and the AUC [24] was 639 ng·h/mL. It also gave a Ratio EC50 [25] of 100, an EC50 [1] of 17 nM and an Activity [2] of 59%. For the same compound, the EC50 ([14]; read-out: EC50) was 1800 nM, the Activity [15] was 66% and the EC50 ([3]; read-out: EC50) was over 10000 nM. It also gave an Activity [6] of 36%, an EC50 ([16]; read-out: EC50) of over 10000 nM and an Activity [26] of 28%. It also gave an EC50 [9] of 3700 nM and an Activity [10] of 62%.
